The source made the active and inactive calls. The rule behind the calls is not given here.
Assays:
Rattus norvegicus [1] = experiment: Immunosuppressive activity in Sprague-Dawley rat […] model assessed as IgM level at 25 mg/kg, po administered once daily for 28 days by ELISA; assay type: functional
MT4 = experiment: Cytotoxicity against human MT4 cells at 0.83 uM by MTT assay; assay type: cell-based; conditions: mt4, 0.83 µM
Rattus norvegicus [2] = experiment: Immunosuppressive activity in Sprague-Dawley rat […] model assessed as percent T-helper cells at 25 mg/kg, po administered once daily for 28 days by flow cytometry; assay type: functional
[3] = test system: Human immunodeficiency virus 1; experiment: Antiviral activity against HIV1 subtype B WEJO infected in human PBMC assessed as inhibition of viral replication by ELISA; assay type: functional, organism-based; conditions: Human immunodeficiency virus 1, subtype B WEJO
Influenza A virus = experiment: Antiviral activity against Influenza A virus H1N1 infected in MDCK cells assessed as inhibition of viral replication; assay type: functional, organism-based
Influenza B virus = experiment: Antiviral activity against influenza B virus infected in MDCK cells assessed as inhibition of viral replication; assay type: functional, organism-based
[4] = test system: Bovine viral diarrhea virus 1; experiment: Antiviral activity against BVDV infected in […] cells assessed as inhibition of viral replication; assay type: functional, organism-based; conditions: Bovine viral diarrhea virus isolates and strains
[5] = test system: Human immunodeficiency virus 1; experiment: Antiviral activity against HIV-1 NL4-3 cells infected in human TZB cells assessed as degradation of cDNA at 0.5 to 2.5 uM after 6 hrs postinfection by RT-PCR; assay type: functional, organism-based
[6] = test system: Human immunodeficiency virus 1; experiment: microbe, parasite or virus in culture; conditions: Human immunodeficiency virus 1, 3B, MT4

Q: Which deltaA (Rattus norvegicus [1]) does the source give for `C/C=C/C[C@@H](C)[C@@H](O)[C@H]1C(=O)N[C@@H](CC)C(=O)N(C)[C@H](C)C(=O)N(CC)[C@@H](C(C)C)C(=O)N[C@@H](C(C)C)C(=O)N(C)[C@@H](CC(C)C)C(=O)N[C@@H](C)C(=O)N[C@H](C)C(=O)N(C)[C@@H](CC(C)C)C(=O)N(C)[C@@H](CC(C)C)C(=O)N(C)[C@@H](C(C)C)C(=O)N1C` [ALISPORIVIR] here?
A: Its deltaA is 0.78.

Q: What about the Activity (MT4) of the same compound?
A: Its Activity is “Non-toxic”.

Q: And the Activity (Rattus norvegicus [2])?
A: The Activity was 34.5%.

Q: What about the IC50 [3] of the same compound?
A: The IC50 was 15 nM.

Q: What about the IC50 (Influenza A virus) of the same compound?
A: The IC50 was over 9900 nM.

Q: What about the IC50 (Influenza B virus) of the same compound?
A: Its IC50 is over 9900 nM.

Q: And the IC50 [4]?
A: The IC50 was over 25000 nM.

Q: What about the Activity [5] of the same compound?
A: Its Activity is “Active”.

Q: And the IC50 [6]?
A: Its IC50 is 99 nM.
